Reference: US20200368205A1, “METHODS AND COMBINATION THERAPY TO TREAT CANCER” (ARRAY BIOPHARMA INC., priority 2018, published 2020)

Columns and labels:
[1] = system: Malme-3M (BRAF V600E) cells; assay: MHC class I cell surface expression, flow cytometry; assay type: cell-based, human; details: 72 hours
Procedure: (§1) The goal of this study was to measure the effects of binimetinib on cell surface MHC class I expression in various melanoma cell lines. In this study, eight melanoma cell lines were evaluated: MEL-JUSO (NRAS Q61L mutation), IPC-298 (NRAS Q61L mutation), A375 (BRAF V600E, homozygous mutation), HS936.T (NRAS Q61K mutation and BRAF N581K mutation), MM485 (NRAS Q61R mutation), SK-MEL-2 (NRAS Q61R mutation), MM415 (NRAS Q61L mutation), Malme-3M (BRAF V600E, heterozygous mutation). The cells lines were seeded into flat bottom 96-well tissue culture plates at a density of 5000 cells per well and allowed to adhere overnight. The following day cells were treated with vehicle control (0.25% DMSO) or varying dilutions of Binimetinib (0.7 nM-25000 nM) for 1 hour. Cells were then treated with vehicle control or 100 ng/ml IFNgamma (R&D systems) for 72 hours. Cells were washed, trypsinized, and stained with Alexa Fluor® 647 anti-human HLA-A,B,C antibody (W6/32, eBioscience) and analyzed on a BD FACSCanto II flow cytometer. An IFNg titration and time course were performed for assay optimization. Maximal induction of MHC class I expression was seen ˜100 ng/mL of IFNγ (see, e.g., FIGS. 1 and 2).

[2] = system: MELJUSO (NRAS Q61L) cells; assay: as above; assay type: cell-based, human; details: for Maximal Fold Increase in MHC Class I Expression: MELJUSO (NRAS Q61L), 72 hours
Procedure: as §1

[3] = system: IPC298 (NRAS Q61L) cells; assay: as above; assay type: cell-based, human; details: 72 hours
Procedure: as §1

[4] = system: SKMEL-2 (NRAS Q61R) cells; assay: as above; assay type: cell-based, human; details: 72 hours
Procedure: as §1

[5] = system: HS936.T (NRAS Q61K, BRAF N581K) cells; assay: as above; assay type: cell-based, human; details: 72 hours
Procedure: as §1

[6] = system: A375 (BRAF V600E) cells; assay: as above; assay type: cell-based, human; details: 72 hours
Procedure: as §1

[7] = system: B16F10 tumors; assay: Growth of B16F10 melanoma tumors; assay type: in vivo
Procedure: [The procedure below names another cell line; the source lists this cell line under the same test.] 1% CMC/0.5% Tween-80 (CMCT) was prepared by adding 960 mL of distilled water to a 1000 mL Pyrex® glass bottle with a stir bar in the bottom, and was used as the oral vehicle. The water was warmed to 50-60° C. then 5 mL Tween® 80 (polyoxyethylenesorbitan monooleate, Sigma P2287, batch #054K0154) and 15.6 mL benzyl alcohol (Sigma 402834, Batch #00296PK) added. Carboxymethylcellulose (5 g, CMC, low viscosity, Sigma C5678, Batch #033K0008) was added slowly, over one hour. The solution was stirred until the CMC dissolved and the solution was clear. 30 mg/kg MEK162 (Binimetinib, 100% active) was prepared as a white, homogeneous suspension in CMCT. MEK162 was administered in 10 mL/kg and dosed at 30 mg/kg (3.0 mg/mL) by oral gavage. To prepare, dry test compound (90 mg) was weighed and 30 mL CMCT added. Dose suspension was sonicated until a fine suspension was achieved (˜15 min). Final dose suspension was stored at 4° C. during live phase and sonicated to resuspend prior to dose administration. Dose suspension was prepared every 4-5 days or as needed. 100 μg αPD-1 RMP1-14, Rat IgG2a isotype (BioXCell cat.no. BP0146, lot #5792×2/1015)−7.12 mg/mL stock concentration. RMP1-14 was prepared by dilution of 0.843 stock solution with 5.157 mL sterile saline for injection. The antibody was administered at 100 μg/animal (100 μL of a 1 mg/mL dose solution) by intraperitoneal injection.
Male BALB/c mice from Charles River (Wilmington, Mass.) were obtained at 6-8 weeks of age and housed in groups of 5. Following a two week acclimation period, a suspension of 1×10^5 cells in a volume of 100 μL saline was implanted subcutaneously on the right flank of the animal near the axillary region. Animals were then randomly assigned to treatment groups. Treatment was initiated on day 4 after CT26 tumor cell inoculation to allow for a sufficient treatment window. MEK162 was administered once daily (QD) for 14 consecutive days by oral gavage (PO) at 30 mg/kg and anti-PD1 antibody was administered twice weekly by intraperitoneal injection (IP) (Table 4).
The combination was evaluated as concomitant administration or sequential where MEK162 treatment was initiated at the time that tumor resistance from anti-PD1 treatment emerged. For the sequential treatment group, animals were enrolled in MEK162 treatment when tumors reached 350-400 mm^3 after anti-PD1 antibody therapy was initiated.
Animals were monitored for tumor growth and body weight 2-3 times per week based on outgrowth kinetics. Tumor diameter was measured with digital calipers, and the tumor volume in mm^3 was calculated by the formula: Volume=((width)^2×length)/2. TGI was calculated on day 15. Animals were removed from study if found moribund or if tumor volume exceeded 1400 mm^3. At that time, tumor tissue was harvested and frozen for later analysis of T-cell clonality by immune sequencing (Adaptive Biotech, San Diego, Calif.). […]
The mean values for tumor volume and body weight by study day for each experimental group were plotted including error bars for the standard error of the mean. % Tumor Growth Inhibition (% TGI): % TGI=100(1−Wt/Wc); Wt is the mean tumor volume of the treated group on day X; We is the mean tumor volume of controls on day X, where X is the last day that the control group is available in its entirety. […] Cures: Animals with no palpable tumor at the end of the study were scored as cures. […]

[8] = system: melanoma cell lines; assay: MHC class I expression across the panel of eight melanoma cell lines; assay type: cell-based, human
Procedure: as §1

[9] = system: Cloudman S91 tumors; assay: Growth of Cloudman S91 melanoma tumors; assay type: in vivo

Cn1cnc2c(F)c(Nc3ccc(Br)cc3F)c(C(=O)NOCCO)cc21 [Binimetinib, 6-(4-bromo-2-fluorophenylamino)-7-fluoro-3-methyl-3H-benzoimidazole-5-carboxylic acid (2-hydroxyethoxy)-amide]
Maximal Fold Increase in MHC Class I Expression ([1]; +IFNg 100 ng/ml): 1.5 fold | Maximal Fold Increase in MHC Class I Expression ([1]; −IFNg): 0 fold | increase in MHC class I expression ([2]; MELJUSO (NRAS Q61L) cells, binimetinib alone, FIG. 5A): 2.5 fold | enhancement of IFNγ-induced MHC class I expression ([2]; MELJUSO (NRAS Q61L) cells, in the presence of 100 ng/mL IFNg): 4-5 fold | Maximal Fold Increase in MHC Class I Expression ([2]; +IFNg 100 ng/ml): 4 fold | Maximal Fold Increase in MHC Class I Expression ([2]; −IFNg): 3 fold | Maximal Fold Increase in MHC Class I Expression ([3]; +IFNg 100 ng/ml): 3 fold | Maximal Fold Increase in MHC Class I Expression ([3]; −IFNg): 2 fold | Maximal Fold Increase in MHC Class I Expression ([4]; +IFNg 100 ng/ml): 1.5 fold | Maximal Fold Increase in MHC Class I Expression ([4]; −IFNg): 2 fold | Maximal Fold Increase in MHC Class I Expression ([5]; +IFNg 100 ng/ml): 2 fold | Maximal Fold Increase in MHC Class I Expression ([5]; −IFNg): 1.5 fold | Maximal Fold Increase in MHC Class I Expression ([6]; +IFNg 100 ng/ml): 4 fold | Maximal Fold Increase in MHC Class I Expression ([6]; −IFNg): 2 fold | Cures (day 61) ([7]; B16F10 tumors): 0/10 | Deaths ([7]; B16F10 tumors): 2/10 | % TGI (day 13) ([7]; B16F10 tumors, C57BL/6 mice, binimetinib 30 mg/kg, anti-PD-1 100 μg): 59.0% | Median Survival ([7]; B16F10 tumors, vehicle 14): 19 | Max % BWL ([7]; mouse, in vivo): 0.8% | melanoma cell lines with increased MHC class I cell surface expression ([8]; binimetinib alone, eight melanoma cell lines): 6 of 8 | fold increase in MHC class I cell surface expression ([8]; binimetinib alone, in 6 of 8 melanoma cell lines): 1.5-3 fold | fold increase of IFNg-induced MHC class I ([8]; with IFNg, all tested cell lines): 1.5-4 fold | Cures (day 44) [9]: 0/10 | Deaths [9]: 0/10 | % TGI (day 8) ([9]; DBA/2 mice, binimetinib 30 mg/kg, anti-PD-1 100 μg): −17% | Max % BWL ([9]; vehicle 12.4): 4.8% | Median Survival ([9]; vehicle 13): 11
